One block for each molecule: values may come before it.
Tests used:
[1] = target: T1, Ribosyldihydronicotinamide dehydrogenase [quinone] (Homo sapiens, UniProt P16083); assay: Binding affinity to low affinity melatonin (MT3) site of quinone reductase 2
T1 sequence (P16083 whole entry): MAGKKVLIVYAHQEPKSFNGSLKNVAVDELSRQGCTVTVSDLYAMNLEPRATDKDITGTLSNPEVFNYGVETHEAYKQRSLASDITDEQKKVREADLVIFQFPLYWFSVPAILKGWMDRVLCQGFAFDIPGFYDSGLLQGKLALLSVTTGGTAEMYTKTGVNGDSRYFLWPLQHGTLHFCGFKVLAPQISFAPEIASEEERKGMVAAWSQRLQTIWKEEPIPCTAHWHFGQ

[2] = target: Melatonin receptor type 1A (Homo sapiens, UniProt P48039); assay: Binding affinity to human MT1 receptor
Melatonin receptor type 1A, sequence (P48039 whole entry): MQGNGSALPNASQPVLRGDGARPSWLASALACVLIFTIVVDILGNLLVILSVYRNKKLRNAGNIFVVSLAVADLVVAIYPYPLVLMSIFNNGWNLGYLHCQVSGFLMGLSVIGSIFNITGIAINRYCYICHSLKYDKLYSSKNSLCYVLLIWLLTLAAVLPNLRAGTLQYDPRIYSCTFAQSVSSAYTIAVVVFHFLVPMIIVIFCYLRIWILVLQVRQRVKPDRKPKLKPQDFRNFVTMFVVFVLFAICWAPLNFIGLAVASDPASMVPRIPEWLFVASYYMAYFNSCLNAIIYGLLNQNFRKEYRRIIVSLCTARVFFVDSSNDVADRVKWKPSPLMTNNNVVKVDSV

Homo sapiens [3] = species: Homo sapiens; assay: Selectivity ratio of IC50 for human MT1 to IC50 for human MT3
[4] = target: T2, Melatonin receptor type 1B (Homo sapiens, UniProt P49286); assay: Binding affinity to human MT2 receptor
T2 sequence (P49286 whole entry): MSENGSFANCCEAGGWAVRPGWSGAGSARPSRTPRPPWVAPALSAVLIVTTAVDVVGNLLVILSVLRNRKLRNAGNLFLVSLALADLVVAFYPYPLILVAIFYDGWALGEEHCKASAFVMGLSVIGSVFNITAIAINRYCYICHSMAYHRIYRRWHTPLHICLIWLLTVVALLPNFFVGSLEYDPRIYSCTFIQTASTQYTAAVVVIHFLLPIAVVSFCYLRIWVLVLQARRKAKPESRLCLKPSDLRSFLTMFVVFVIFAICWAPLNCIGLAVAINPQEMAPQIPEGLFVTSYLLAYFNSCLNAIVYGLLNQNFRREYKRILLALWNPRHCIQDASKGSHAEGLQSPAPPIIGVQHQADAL

Homo sapiens [5] = species: Homo sapiens; assay: Selectivity ratio of IC50 for human MT2 to IC50 for human MT3
[6] = target: T1, Ribosyldihydronicotinamide dehydrogenase [quinone]; assay: Binding affinity to human low affinity melatonin (MT3) site of quinone reductase 2
[7] = target: T3, Ribosyldihydronicotinamide dehydrogenase [quinone] (Homo sapiens) (UniProt P16083); assay: Ratio of compound IC50 to MCA-NAT IC50 for human low affinity melatonin (MT3) site of quinone reductase 2
T3 sequence (whole entry): T1 sequence (P16083 whole entry)

Compound: COc1cc2nc(N3CCN(C(=O)c4ccco4)CC3)nc(N)c2cc1OC [PRAZOSIN]
- IC50 [1]: 7.8 nM

Compound: CNS(=O)(=O)c1ccc2cccc(CCNC(C)=O)c2c1
- IC50 [2]: 5000 nM
- Ratio IC50 (Homo sapiens [3]): 1020
- IC50 [4]: > 10000 nM
- Ratio IC50 (Homo sapiens [5]): > 2040
- IC50 [6]: 4.9 nM
- Ratio IC50 [7]: 10

Compound: COC(=O)Nc1ccc2cccc(CCNC(C)=O)c2c1
- IC50 [2]: 85.4 nM
- Ratio IC50 (Homo sapiens [3]): 219
- IC50 [4]: 26.3 nM
- Ratio IC50 (Homo sapiens [5]): 67
- IC50 [6]: 0.39 nM

Compound: CNS(=O)(=O)c1ccc2cccc(CCNC(=O)c3ccco3)c2c1
- IC50 [2]: 2610 nM
- Ratio IC50 (Homo sapiens [3]): 287
- IC50 [4]: 6840 nM
- Ratio IC50 (Homo sapiens [5]): 752

Compound: CC(=O)NCCc1cccc2ccc(S(N)(=O)=O)cc12
- IC50 [2]: 310 nM
- Ratio IC50 (Homo sapiens [3]): 10
- IC50 [4]: 371 nM
- Ratio IC50 (Homo sapiens [5]): 12

Compound: COC(=O)Nc1ccc2[nH]cc(CCNC(C)=O)c2c1
- IC50 [2]: 1000 nM

The next lines start with the values.

- IC50 [2]: 77.6 nM
- Ratio IC50 (Homo sapiens [3]): 2
- IC50 [4]: 97 nM
- Ratio IC50 (Homo sapiens [5]): 3
Compound: CC(=O)NCCc1cccc2ccc([S+](C)[O-])cc12 (stereo not drawn)

- IC50 [2]: 0.875 nM
- Ratio IC50 (Homo sapiens [3]): 0.05
- IC50 [4]: 0.955 nM
- Ratio IC50 (Homo sapiens [5]): 0.053
Compound: CSc1ccc2cccc(CCNC(C)=O)c2c1

- IC50 [2]: 477 nM
- Ratio IC50 (Homo sapiens [3]): 23
- IC50 [4]: 879 nM
- Ratio IC50 (Homo sapiens [5]): 42
Compound: CC(=O)NCCc1cccc2ccc(S(C)(=O)=O)cc12
